These results are taken from patent US10626095B2, “Cyanotriazole compounds” (OTSUKA PHARMACEUTICAL CO., LTD., priority 2013, dated 2020).

This assay relates to NaCT-CHO (CHO cells stably expressing human NaCT). The assay is described as follows: Assay of the citric acid cycle activation ([1,5-14C]-citric acid, diffusion of [14C]-CO2). The assay is classed as cell-based. The note with it: 1 hour incubation at 37° C. with [1,5-14C]-citric acid. From the text: Assay of the Citric Acid Cycle Activation
(1) Construction of the Human NaCT Expression Vector pME-NaCT
The human NaCT (also called SLC13A5 or NAC2; GenBank accession No. NM_177550) cDNA was inserted into the EcoRI-NotI site of the mammalian expression vector pME18S (GenBank accession No. AB009864) and purified by Qiagen Plasmid Maxi Kit (Qiagen).
(2) Establishment of NaCT Stably Expressed CHO Cells
The pME-NaCT vector and the pcDNA™3.1 vector containing the neomycin resistance gene (Life Technologies) were co-transfected into CHO-K1 cells (ATCC) by Lipofectaimine 2000 reagent (Life Technologies). The next day the cells were subcultured in Nutrient Mixture F-12 Ham (Sigma-Aldrich) with 10% FBS (Biological Industries), and Geneticin (Life Technologies) was added (final concentration 350 μg/mL) in the following day. CHO cell clones stably expressing NaCT were given by neomycin resistant cell screening and limiting dilution method. Established cell lines (named NaCT-CHO) were also maintained in culture medium (Nutrient Mixture F-12 Ham) with 10% FBS and 350 μg/mL Geneticin. For control cells (named pME-CHO) preparation, the naive pME18S were also transfected instead of pME-NaCT into CHO-K1 cells.
(3) Assay of the Citric Acid Cycle Activation
NaCT-CHO and pME-CHO were plated at 20,000 cells/well into white CulturPlate™-96 (PerkinElmer) two days before the assay. Prior to assay incubation, the cultured plates were washed twice with washing buffer, 10 mM HEPES-Tris(pH7.4) containing 140 mM choline chloride, 2 mM KCl, 1 mM CaCl2, 1 mM MgCl2. The compounds to be tested were dissolved and diluted in DMSO (Wako Pure Chemical industries) to 1,000 times of a final concentration, and further diluted to two times as high as the final concentration in assay buffer, 10 mM HEPES-Tris(pH7.4) containing 140 mM NaCl, 2 mM KCl, 1 mM CaCl2, 1 mM MgCl2. The range of final concentrations was properly determined based on the test compounds activity. Each 25 μL compound solution was added to well and subsequently 25 μL radio-labeled substrate solution containing 0.4 mM (0.4 MBq/mL) [1,5-^14C]-citric acid (PerkinElmer) in the assay buffer was added. After 1 hour incubation at 37° C., the reaction mixture was discarded and washed three times with pre-chilled washing buffer and then 0.1 mL MicroScint 20 (PerkinElmer) was added to well. The plate was sealed with TopSeal-A (PerkinElmer) and the radioactivity was measured using a TopCount (PerkinElmer). Non-specific activity (NS cpm) and total radio activity (Total cpm) were determined by counting of pME-CHO plated wells and NaCT-CHO plated wells without compounds, respectively. Diffusion of [^14C]—CO2 was able to be estimated from residual radioactivity (R cpm) by an equation (Total−R)/(Total−NS)×100(%). The difference of Total and R was disappeared in the presence of 0.1 μM antimycin A. EC50 values were calculated by regression analysis using SAS Statistical Analysis System (SAS institute Japan Ltd. Release 9.1).

By EC50 is commonly meant the midpoint of the concentration-response curve. Molecule `N#Cc1[nH]nnc1-c1ccc(/C=C/c2cccc(C(F)(F)F)c2)s1` [Example 133, 5-{5-[(E)-2-(3-trifluoromethyl-phenyl)-vinyl]-thiophen-2-yl}-3H-[1,2,3]triazole-4-carbonitrile] returned an EC50 of 190 nM.
Then `CCc1nc(-c2ccc(Cl)cc2)sc1-c1[nH]nnc1C#N` [Example 115, 5-[2-(4-chloro-phenyl)-4-ethyl-thiazol-5-yl]-1H-[1,2,3]triazole-4-carbonitrile], with 650 nM.
For the molecule `N#Cc1[nH]nnc1-c1sccc1-c1cc(C(F)(F)F)cc(C(F)(F)F)c1` [Example 126, 5-[3-(3,5-bis-trifluoromethyl-phenyl)-thiophen-2-yl]-3H-[1,2,3]triazole-4-carbonitrile], the EC50 turned out to be 260 nM.
As for `N#Cc1[nH]nnc1-c1ccc(-c2cc(C(F)(F)F)ccn2)cc1` [Example 69, 5-[4-(4-trifluoromethyl-pyridin-2-yl)-phenyl]-3H-[1,2,3]triazole-4-carbonitrile], the midpoint of the response, the EC50, lay at 530 nM.
In turn, `N#Cc1[nH]nnc1-c1cccc(CCc2ccc(F)cc2F)c1` [Example 40, 5-{3-[2-(2,4-difluoro-phenyl)-ethyl]-phenyl}-3H-[1,2,3]triazole-4-carbonitrile] showed an EC50 of 550 nM.
`N#Cc1[nH]nnc1-c1sccc1-c1cccc(OCc2cc(C(F)(F)F)ccc2C(F)(F)F)c1` [Example 127, 5-{3-[3-(2,5-bis-trifluoromethyl-benzyloxy)-phenyl]-thiophen-2-yl}-3H-[1,2,3]triazole-4-carbonitrile]: the EC50 was 740 nM.
`N#Cc1[nH]nnc1-c1ccn(-c2cc(C(F)(F)F)ccc2C(F)(F)F)c1` [Example 140, 5-[1-(2,5-bis-trifluoromethyl-phenyl)-1H-pyrrol-3-yl]-3H-[1,2,3]triazole-4-carbonitrile]: the EC50 was 800 nM.
For the molecule `CC(C)(C)c1cc(-c2ccc(C(F)(F)F)cn2)cc(-c2nn[nH]c2C#N)c1` [Example 13, 5-[3-tert-butyl-5-(5-trifluoromethyl-pyridin-2-yl)-phenyl]-3H-[1,2,3]triazole-4-carbonitrile], a half-maximal response (EC50) required 870 nM.
Regarding `N#Cc1[nH]nnc1-c1csc(-c2ccc(F)c(Cl)c2)n1` [Example 76, 5-[2-(3-chloro-4-fluoro-phenyl)-thiazol-4-yl]-3H-[1,2,3]triazole-4-carbonitrile], the EC50 was 590 nM. This EC50 and that of the molecule before are within 1.5-fold of each other.
With `N#Cc1[nH]nnc1-c1cccc(COCC2CCCCC2)c1` [Example 3, 5-(3-cyclohexylmethoxymethyl-phenyl)-3H-[1,2,3]triazole-4-carbonitrile], the EC50 turned out to be 260 nM.
`CN(Cc1cccc(-c2nn[nH]c2C#N)c1)c1ccc(F)cc1` [Example 54, 5-(3-{[N-(4-fluoro-phenyl)-N-methyl-amino]-methyl}-phenyl)-3H-[1,2,3]triazole-4-carbonitrile]: the EC50 stood at 430 nM.
On to `N#Cc1[nH]nnc1-c1csc(Sc2ccc(Cl)cc2)n1` [Example 86, 5-[2-(4-chloro-phenylsulfanyl)-thiazol-4-yl]-3H-[1,2,3]triazole-4-carbonitrile], for which the response was half-maximal at 670 nM (EC50).
`N#Cc1[nH]nnc1-c1cnc(-c2cccc(C(F)(F)F)c2)s1` [Example 111, 5-[2-(3-trifluoromethyl-phenyl)-thiazol-5-yl]-3H-[1,2,3]triazole-4-carbonitrile] showed an EC50 of 750 nM.
`N#Cc1[nH]nnc1-c1cc(Cl)ccc1/C=C/c1cccc(C(F)(F)F)c1` [Example 8, 5-{5-chloro-2-[(E)-2-(3-trifluoromethyl-phenyl)-vinyl]-phenyl}-3H-[1,2,3]triazole-4-carbonitrile] registered an EC50 of 290 nM. Compared with the last molecule, the EC50 is about 2.6-fold lower.
For `CCc1sc(-c2ccc(C(F)(F)F)nc2)nc1-c1nn[nH]c1C#N` [Example 101, 5-[5-ethyl-2-(6-trifluoromethyl-pyridin-3-yl)-thiazol-4-yl]-3H-[1,2,3]triazole-4-carbonitrile], the EC50 came to 850 nM.
In turn, `Cc1sc(Sc2cccc(C(F)(F)F)c2)nc1-c1nn[nH]c1C#N` [Example 97, 5-[5-methyl-2-(3-trifluoromethyl-phenylsulfanyl)-thiazol-4-yl]-3H-[1,2,3]triazole-4-carbonitrile] yielded an EC50 of 500 nM.
Consider `Cc1cc(-c2nn[nH]c2C#N)sc1-c1ccc(C(F)(F)F)cc1` [Example 130, 5-[4-methyl-5-(4-trifluoromethyl-phenyl)-thiophen-2-yl]-3H-[1,2,3]triazole-4-carbonitrile], for which the midpoint of the response, the EC50, lay at 730 nM. This EC50 and that of the molecule before are within 1.5-fold of each other.
In turn, `N#Cc1[nH]nnc1-c1cccn1Cc1ccc(C(F)(F)F)cc1C(F)(F)F` [Example 138, 5-[1-(2,4-bis-trifluoromethyl-benzyl)-1H-pyrrol-2-yl]-3H-[1,2,3]triazole-4-carbonitrile] registered a concentration for a half-maximal effect (EC50) of 62 nM.
For `N#Cc1[nH]nnc1-c1nc(-c2ccc(Cl)cc2)sc1-c1ccc(C(F)(F)F)cc1` [Example 107, 5-[2-(4-chloro-phenyl)-5-(4-trifluoromethyl-phenyl)-thiazol-4-yl]-3H-[1,2,3]triazole-4-carbonitrile], a half-maximal response (EC50) required 2560 nM.
The same measure for `COc1ccc(-c2nn[nH]c2C#N)cc1-c1ccc(F)c(F)c1` [Example 32, 5-(3′,4′-difluoro-6-methoxy-biphenyl-3-yl)-3H-[1,2,3]triazole-4-carbonitrile]: 740 nM.
Turning to `N#Cc1[nH]nnc1-c1ccc(/C=C/c2cccc(C(F)(F)F)c2)cc1F` [Example 73, 5-{2-fluoro-4-[(E)-2-(3-trifluoromethyl-phenyl)-vinyl]-phenyl}-3H-[1,2,3]triazole-4-carbonitrile], the half-maximal effective concentration (EC50) worked out at 730 nM.
The molecule `N#Cc1[nH]nnc1-c1cccc(-c2nc3cc(F)ccc3o2)c1` [Example 27, 5-[3-(5-fluoro-benzoxazol-2-yl)-phenyl]-3H-[1,2,3]triazole-4-carbonitrile] registered an EC50 of 890 nM.
On to `CC(C)Cc1sc(-c2ccc(Cl)cc2)nc1-c1nn[nH]c1C#N` [Example 106, 5-[2-(4-chloro-phenyl)-5-isobutyl-thiazol-4-yl]-3H-[1,2,3]triazole-4-carbonitrile], for which it took 840 nM to reach a half-maximal effect (EC50).
The same measure for `N#Cc1[nH]nnc1-c1nc(Oc2ccc(OC(F)(F)F)cc2)sc1Cl` [Example 109, 5-[5-chloro-2-(4-trifluoromethoxy-phenoxy)-thiazol-4-yl]-3H-[1,2,3]triazole-4-carbonitrile]: 670 nM; for `N#Cc1[nH]nnc1-c1ccc(-c2ccc(Cl)cc2)o1` [Example 136, 5-[5-(4-chloro-phenyl)-furan-2-yl]-3H-[1,2,3]triazole-4-carbonitrile]: 680 nM.
Then `N#Cc1[nH]nnc1-c1cc(OCC2CC2)cc(-c2ccc(C(F)(F)F)cn2)c1` [Example 18, 5-[3-cyclopropylmethoxy-5-(5-trifluoromethyl-pyridin-2-yl)-phenyl]-3H-[0,1,2,3]triazole-4-carbonitrile], with 570 nM; and `N#Cc1[nH]nnc1-c1cccc(Sc2ccc(Cl)cc2)c1` [Example 38, 5-[3-(4-chloro-phenylsulfanyl)-phenyl]-3H-[1,2,3]triazole-4-carbonitrile], with 420 nM; and `N#Cc1[nH]nnc1-c1cc(Cl)cc(-c2ccc3c(c2)OC(F)(F)O3)c1` [Example 30, 5-[3-chloro-5-(2,2-difluoro-benzo[1,3]dioxol-5-yl)-phenyl]-3H-[1,2,3]triazole-4-carbonitrile], with 640 nM.
